Source: PMC10988834, “Neq2X7: a multi-purpose and open-source fusion DNA polymerase for advanced DNA engineering and diagnostics PCR” (BMC Biotechnology, 2024)

Target: T1, Neq2X (Nanoarchaeum equitans, UniProt Q74M37+Q74N74, Q74N74:A523R/Q74N74:N540R)
T1 construct: gene NEQ068; double mutant Neq DNA polymerase without Sso7d, N-terminal 6xHis; one polypeptide, E. coli Rosetta2 (DE3) pLysS
Experiment: PCR amplification, agarose gel
Assay type: biochemical
Conditions: with dATP, dCTP, dGTP, 1 min/kb, extension 72 °C

T1 sequence (Q74M37 entry or part of it): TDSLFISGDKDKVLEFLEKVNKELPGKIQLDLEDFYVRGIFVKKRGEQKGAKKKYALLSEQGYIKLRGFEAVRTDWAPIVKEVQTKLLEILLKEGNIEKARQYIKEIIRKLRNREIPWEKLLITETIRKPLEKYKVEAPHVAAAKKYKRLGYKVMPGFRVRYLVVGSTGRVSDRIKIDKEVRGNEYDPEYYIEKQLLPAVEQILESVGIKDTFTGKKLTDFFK
T1 sequence (Q74N74 entry or part of it A523R/N540R): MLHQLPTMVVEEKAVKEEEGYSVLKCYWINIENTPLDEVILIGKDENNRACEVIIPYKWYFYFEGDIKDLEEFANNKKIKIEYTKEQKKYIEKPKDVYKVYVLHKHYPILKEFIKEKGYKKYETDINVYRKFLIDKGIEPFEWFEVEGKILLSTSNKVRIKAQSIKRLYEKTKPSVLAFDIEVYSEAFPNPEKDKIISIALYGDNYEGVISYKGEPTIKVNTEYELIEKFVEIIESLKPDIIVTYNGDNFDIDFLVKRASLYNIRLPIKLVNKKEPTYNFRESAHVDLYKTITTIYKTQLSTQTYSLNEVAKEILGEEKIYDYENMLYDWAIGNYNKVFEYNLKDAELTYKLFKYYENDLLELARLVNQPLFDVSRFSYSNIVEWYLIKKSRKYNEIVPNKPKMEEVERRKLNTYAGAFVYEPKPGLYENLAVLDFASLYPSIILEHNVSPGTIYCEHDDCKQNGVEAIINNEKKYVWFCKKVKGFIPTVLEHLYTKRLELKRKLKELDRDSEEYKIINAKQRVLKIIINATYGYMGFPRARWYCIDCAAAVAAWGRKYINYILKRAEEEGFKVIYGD

Row | Structure (SMILES) | PCR amplification, agarose gel (3-12 kb amplicons) | PCR amplification, agarose gel (dUTP fully replacing dTTP, 3 kb amplicon)
1 | Cc1cn([C@H]2C[C@H](O)[C@@H](COP(=O)(O)OP(=O)(O)OP(=O)(O)O)O2)c(=O)[nH]c1=O [dTTP] | all three polymerases amplified DNA to a detectable level | 
2 | O=c1ccn([C@H]2C[C@H](O)[C@@H](COP(=O)(O)OP(=O)(O)OP(=O)(O)O)O2)c(=O)[nH]1 [dUTP] |  | all tested polymerases were able to generate a detectable PCR product
